Columns and labels:
Cathepsin B = Cathepsin B (Homo sapiens, UniProt P07858); assay: Inhibition of human liver cathepsin B after 5 mins by microplate reader analysis
Procathepsin L = Procathepsin L (Homo sapiens, UniProt P07711); assay: Inhibition of human liver cathepsin L after 5 mins by microplate reader analysis
NCI-H460 = assay: Cytotoxicity against human NCI-H460 cells after 48 hrs by SRB assay; type: functional; conditions: NCI-H460, 48 h
DU-145 = assay: Cytotoxicity against human DU145 cells after 48 hrs by SRB assay; type: functional; conditions: DU-145, 48 h

Chain of Procathepsin L (P07711 whole entry): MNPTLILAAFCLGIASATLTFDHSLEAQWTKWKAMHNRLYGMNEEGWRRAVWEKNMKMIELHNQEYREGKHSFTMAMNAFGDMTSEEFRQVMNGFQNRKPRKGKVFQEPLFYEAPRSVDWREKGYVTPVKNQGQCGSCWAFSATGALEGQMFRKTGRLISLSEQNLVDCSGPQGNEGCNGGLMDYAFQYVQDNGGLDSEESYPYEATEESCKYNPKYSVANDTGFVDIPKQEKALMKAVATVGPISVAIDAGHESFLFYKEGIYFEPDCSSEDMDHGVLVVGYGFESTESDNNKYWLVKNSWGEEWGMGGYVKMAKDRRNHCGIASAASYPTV

| Compound | IC50 (Cathepsin B) [µM] | IC50 (Procathepsin L) [µM] | GI50 (NCI-H460) [µM] | GI50 (DU-145) [µM] |
| --- | --- | --- | --- | --- |
| CC(C)(C)[Si](C)(C)Oc1cccc(/C(=N\NC(N)=S)c2cccc(Br)c2)c1 | > 10 | > 10 |  |  |
| COc1ccc(/C(=N\NC(N)=S)c2cc(OC)c(OC)c(OC)c2)cc1O | 1.42 | 3.6 |  |  |
| NC(=S)N/N=C(/c1cccc(Br)c1)c1ccc2c(c1)CCCC2 | > 10 | 9.65 |  |  |
| NC(=S)NN=C1c2cc(Br)ccc2-c2ccc(Br)cc21 | > 10 | > 10 |  |  |
| NC(=S)NN=C1c2ccccc2-c2ccccc21 | > 10 | > 10 |  |  |
| NC(=S)N/N=C(/c1cccc(Br)c1)c1cc(Br)cs1 | > 10 | 0.814 |  |  |
| NC(=S)N/N=C(/c1cccc(Br)c1)c1ccc(Br)s1 | > 10 | 0.931 |  |  |
| CC(C)(C)[Si](C)(C)Oc1ccc(/C(=N\NC(N)=S)c2cccc(Br)c2)cc1Br | > 10 | > 10 |  |  |
| CC(C)(C)[Si](C)(C)Oc1cc(Br)cc(/C(=N\NC(N)=S)c2cccc(Br)c2)c1 | > 10 | > 10 |  |  |
| NC(=S)N/N=C(/c1cccc(Br)c1)c1cccnc1Br | > 10 | > 10 |  |  |
| NC(=S)N/N=C(/c1cccc(Br)c1)C1CCCCC1 | > 10 | > 10 |  |  |
| NC(=S)N/N=C(/c1cccc(Br)c1)c1sccc1Br | > 10 | 0.37 |  |  |

Further lines, with some results ahead:

| IC50 (Cathepsin B) [µM] | IC50 (Procathepsin L) [µM] | Compound | GI50 (NCI-H460) [µM] | GI50 (DU-145) [µM] |
| --- | --- | --- | --- | --- |
| > 10 | > 10 | NC(=S)N/N=C(/c1ccccc1)c1cccc(O)c1 |  |  |
| > 10 | 5.41 | NC(=S)N/N=C(\Cc1ccccc1)c1ccccc1 |  |  |
| > 10 | 0.131 | NC(=S)N/N=C(\c1cccc(O)c1)c1cccc(Br)c1 | 23.3 | 21.6 |
| > 10 | 0.232 | NC(=S)N/N=C(/c1cccc(Br)c1)c1cc(O)cc(Br)c1 |  |  |
| > 10 | > 10 | NC(=S)NN=C(c1ccccc1)c1ccccc1 [BENZOPHENONE-THIOSEMICARBAZONE] |  |  |
| > 10 | > 10 | NC(=S)N/N=C(\c1ccc(Br)nc1)c1cccc(Br)c1 |  |  |
| 9.49 | 0.126 | NC(=S)N/N=C(/c1cccc(Br)c1)c1ccc(O)c(Br)c1 |  |  |
| > 10 | > 10 | NC(=S)N/N=C(/c1ccccc1)c1cccnc1 |  |  |
| > 10 | > 10 | NC(=S)N/N=C(/c1ccccc1)c1cccs1 |  |  |
| > 10 | 1 | NC(=S)N/N=C(\c1cccnc1)c1cccc(Br)c1 |  |  |
| > 10 | > 10 | NC(=S)N/N=C(/c1cccc(Br)c1)c1cccc(Br)c1O |  |  |
| 1.6 | 0.151 | CC(=O)Oc1cccc(/C(=N\NC(N)=S)c2cccc(Br)c2)c1 |  |  |
| > 10 | > 10 | NC(=S)N/N=C(/c1cccc(Br)c1)c1cccc(OCc2ccccc2)c1 |  |  |

— ChEMBL document CHEMBL1268983, “Functionalized benzophenone, thiophene, pyridine, and fluorene thiosemicarbazone derivatives as inhibitors of cathepsin L” (Bioorg Med Chem Lett, 2010)
